Laboratory results as given in patent publication US20210238528A1, “CELL SCAFFOLD MATERIAL” (Stem Cell & Device Laboratory, Inc., priority 2018, published 2021).

System: myocardial cells derived from human iPS cells
Test: Drug response of myocardial cells determined with MEA probe
Conditions: for Drug response, Oriented fiber sheet 2: myocardial cells cultured 7 days with oriented fiber sheet 2, pitch 10 μm

## COc1ccc(CCN(C)CCCC(C#N)(c2ccc(OC)c(OC)c2)C(C)C)cc1OC (stereo not shown) [Verapamil]
0.3 μM verapamil, myocardial cells directly cultured on MEA probe
  arrest (division stop): arrest (division stop) occurred
  Drug response, Oriented fiber sheet 2: No arrest occurred.
Listed as verapamil
  Drug response, Oriented fiber sheet 2: no an arrest (division stop) occurred
Myocardial cells cultured directly on MEA probe
  Drug response, MEA probe: Arrest occurred.
